Where “and” joins values, the source holds several entries; their conditions need not be identical. Equal entries are not always repeated.
The compounds below were run against T1, Gal4-HNF4α (human HNF4α LBD) (Homo sapiens, UniProt P41235) (assay: Hybrid Gal4-HNF4α reporter gene assay in transiently transfected HEK293T cells). Conditions: not given.
T1 construct: uniprot entry: P41235-1, residues 142-377; expressed in transfected cells; host or cells: HEK293T
T1 sequence (P41235 142-377): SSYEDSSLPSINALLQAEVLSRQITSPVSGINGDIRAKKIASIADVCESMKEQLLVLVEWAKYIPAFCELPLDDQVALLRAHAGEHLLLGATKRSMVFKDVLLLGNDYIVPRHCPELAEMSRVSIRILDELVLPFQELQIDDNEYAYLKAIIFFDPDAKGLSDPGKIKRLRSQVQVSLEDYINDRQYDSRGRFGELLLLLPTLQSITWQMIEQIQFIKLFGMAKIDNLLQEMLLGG
Format: cell-based

SMILES | HNF4a-screening_activity_(mean_of_n=2)
Nc1cc2ccccc2oc1=O [Prestw-Frag-1001, Nc1cc2ccccc2oc1=O] | 0.9336 and 1.001

Same assay, conditions: Table S1, primary screening, 50 µM

SMILES | HNF4a-screening_activity_(mean_of_n=2)
CN1C2CCC1CC(O)C2 (centres unmarked) [Prestw-Frag-0608, CN1C2CCC1CC(O)C2] | 1.089 and 1.102
CC(C)(C)NCC(O)COc1ccccc1C1CCCC1 (centres unmarked) [Prestw-Frag-0674, CC(C)(C)NCC(O)COc1ccccc1C1CCCC1] | 1.434
O=c1ccc2ccccc2o1 [Prestw-Frag-1000, O=c1ccc2ccccc2o1] | 1.227
Cc1cc(-c2ccccc2)nnc1N [Prestw-Frag-1003, Cc1cc(nnc1N)-c1ccccc1] | 1.014 and 1.217
NC(=O)NS(=O)(=O)c1ccccc1 [Prestw-Frag-1006, NC(=O)NS(=O)(=O)c1ccccc1] | 1.153 and 1.01
CC(=O)Nc1nncs1 [Prestw-Frag-1008, CC(=O)Nc1nncs1] | 1.066 and 0.8521
Nc1nncs1 [Prestw-Frag-1009, Nc1nncs1] | 1.011
COC(=O)C(c1ccccc1)c1ccccc1 [Prestw-Frag-1013, COC(=O)C(c1ccccc1)c1ccccc1] | 1.409 and 1.217
c1ccc2c3c([nH]c2c1)CNCC3 [Prestw-Frag-1014, C1Cc2c(CN1)[nH]c1ccccc21] | 0.999 and 1.943
C[N+](C)(CCO)Cc1ccccc1 [Prestw-Frag-1017, C[N+](C)(CCO)Cc1ccccc1] | 0.8969 and 1.169
NC(=O)Cc1cccs1 [Prestw-Frag-1019, NC(=O)Cc1cccs1] | 1.073 and 1.154
Cc1cc(=O)n(-c2ccccc2)[nH]1 [Prestw-Frag-1028, Cc1cc(=O)n([nH]1)-c1ccccc1] | 1.027
NCCCCc1ccccc1 [Prestw-Frag-1031, NCCCCc1ccccc1] | 1.332
Cn1nnnc1S [Prestw-Frag-1032, Cn1nnnc1S] | 1.09
COc1ccc(Cc2ccc(OC)cc2)cc1 [Prestw-Frag-1033, COc1ccc(Cc2ccc(OC)cc2)cc1] | 1.259 and 1.114
NCc1c(N)ccc(Cl)c1Cl [Prestw-Frag-1039, NCc1c(N)ccc(Cl)c1Cl] | 1.196 and 1.044
O=C(O)c1ccccc1O [Prestw-Frag-1045, OC(=O)c1ccccc1O] | 1.058
CCC(=O)Nc1ncnc2[nH]cnc12 [Prestw-Frag-1047, CCC(=O)Nc1ncnc2[nH]cnc12] | 0.8266 and 1.023
Nc1nc2ccccc2n1Cc1ccc(F)cc1 [Prestw-Frag-1050, Nc1nc2ccccc2n1Cc1ccc(F)cc1] | 0.6752 and 1.069
COc1ccc(CCN2CCC(N)CC2)cc1 [Prestw-Frag-1051, COc1ccc(CCN2CCC(N)CC2)cc1] | 1.433
CC(C)(Oc1ccccc1)C(=O)O [Prestw-Frag-1053, CC(C)(Oc1ccccc1)C(O)=O] | 0.9983 and 1.387
Nc1ccc[nH]c1=O [Prestw-Frag-1060, Nc1ccc[nH]c1=O] | 1.316 and 1.113
COc1cc2c(cc1O)CCN[C@H]2C [Prestw-Frag-1063, COc1cc2[C@H](C)NCCc2cc1O] | 1.128
COc1ccc(CCN)cc1O [Prestw-Frag-1064, COc1ccc(CCN)cc1O] | 1.012
O=[N+]([O-])c1ccc(CO)cc1 [Prestw-Frag-1071, OCc1ccc(cc1)[N+]([O-])=O] | 1.036 and 1.173
CCC1=C(C)CN(C(=O)NCCc2ccccc2)C1=O [Prestw-Frag-1075, CCC1=C(C)CN(C(=O)NCCc2ccccc2)C1=O] | 1.214

SMILES | HNF4a-screening_activity_(mean_of_n=2)
NCCc1ccc(S(N)(=O)=O)cc1 [Prestw-Frag-1076, NCCc1ccc(cc1)S(N)(=O)=O] | 1.134 and 1.077
CC(=O)c1cc(Cl)ccc1O [Prestw-Frag-1083, CC(=O)c1cc(Cl)ccc1O] | 1.17
CCN(CC)CCNC(=O)c1ccccc1O [Prestw-Frag-1086, CCN(CC)CCNC(=O)c1ccccc1O] | 1.563 and 0.9485
O=c1[nH]c2ccccc2o1 [Prestw-Frag-1087, O=c1[nH]c2ccccc2o1] | 1.002 and 1.32
CC(=O)c1ccc(N2CCNCC2)c(F)c1 [Prestw-Frag-1094, CC(=O)c1ccc(N2CCNCC2)c(F)c1] | 1.1 and 1.293
Cc1ncsc1CCO [Prestw-Frag-1098, Cc1ncsc1CCO] | 1.111
NC(=O)[C@H](N)c1ccccc1 [Prestw-Frag-1099, N[C@@H](C(N)=O)c1ccccc1] | 1.079
Clc1ccc2c(c1)Nc1ccccc1CC2 [Prestw-Frag-1101, Clc1ccc2CCc3ccccc3Nc2c1] | 2.203
OC(c1ccccc1)c1ccc(Cl)cc1 (centres unmarked) [Prestw-Frag-1106, OC(c1ccccc1)c1ccc(Cl)cc1] | 0.8543
c1ccc(N2CCNCC2)nc1 [Prestw-Frag-1110, C1CN(CCN1)c1ccccn1] | 1.308
COC(=O)c1scc(C)c1N [Prestw-Frag-1111, COC(=O)c1scc(C)c1N] | 1.183
CCN(Cc1ccccc1)c1ccccc1 [Prestw-Frag-1121, CCN(Cc1ccccc1)c1ccccc1] | 1.173
OC(c1ccccc1)c1ccccc1 [Prestw-Frag-1122, OC(c1ccccc1)c1ccccc1] | 1.034
NCC(CC(=O)O)c1ccccc1 (centres unmarked) [Prestw-Frag-1125, NCC(CC(O)=O)c1ccccc1] | 0.6886
O=C(O)CCc1ccc(Cl)cc1 [Prestw-Frag-1126, OC(=O)CCc1ccc(Cl)cc1] | 0.7294
Cc1oncc1C(N)=O [Prestw-Frag-1128, Cc1oncc1C(N)=O] | 0.9735 and 0.9722
Cc1c(O)c2ccccc2oc1=O [Prestw-Frag-1130, Cc1c(O)c2ccccc2oc1=O] | 0.9979
O=c1cc(O)c2ccccc2o1 [Prestw-Frag-1131, Oc1cc(=O)oc2ccccc12] | 1.185
COc1ccc2ccncc2c1 [Prestw-Frag-1133, COc1ccc2ccncc2c1] | 1.332
Cn1c(=O)[nH]c2nc[nH]c2c1=O [Prestw-Frag-1138, Cn1c(=O)[nH]c2nc[nH]c2c1=O] | 0.9492
CNC(C)(C)Cc1ccccc1 [Prestw-Frag-1141, CNC(C)(C)Cc1ccccc1] | 1.206
COc1cc(N)ncn1 [Prestw-Frag-1154, COc1cc(N)ncn1] | 1.214
Oc1cccc2c1CCCC2 [Prestw-Frag-1156, Oc1cccc2CCCCc12] | 0.9426
Cc1nnc(N)s1 [Prestw-Frag-1161, Cc1nnc(N)s1] | 1.123
C(=C\c1ccccc1)/CN1CCNCC1 [Prestw-Frag-1163, C(\C=C\c1ccccc1)N1CCNCC1] | 1.316
c1ccc2[nH]c(CN3CCCC3)nc2c1 [Prestw-Frag-1164, C(N1CCCC1)c1nc2ccccc2[nH]1] | 0.7439 and 0.7907

Reference: article PMC7660650, “Chemical Starting Matter for HNF4α Ligand Discovery and Chemogenomics” (International Journal of Molecular Sciences, 2020)
